The values that follow come from patent publication US10383335B2, “Bicyclic pyrazole pesticides” (FMC Corporation, priority 2015, dated 2019).

Read-outs that look alike come from different tables or passages of the source.

The subject of data set [1] is green peach aphid (Myzus persicae (Sulzer)). Nature of the data set: Test A: control of green peach aphid on radish plant, spray, contact and/or systemic. Type of data set: in vivo. Particulars: 144 h, assessed after 6 days; for mortality at 250 ppm: sprayed at 250 ppm; for mortality at 50 ppm: sprayed at 50 ppm. The procedure: (§1) Test compounds were formulated using a solution containing 10% acetone, 90% water and 300 ppm X-77® Spreader Lo-Foam Formula non-ionic surfactant containing alkylarylpolyoxyethylene, free fatty acids, glycols and isopropanol (Loveland Industries, Inc. Greeley, Colo., USA). The formulated compounds were applied in 1 mL of liquid through a SUJ2 atomizer nozzle with ⅛ JJ custom body (Spraying Systems Co. Wheaton, Ill., USA) positioned 1.27 cm (0.5 inches) above the top of each test unit. Test compounds were sprayed at the rates indicated, and each test was replicated three times.
For evaluating control of green peach aphid (Myzus persicae (Sulzer)) through contact and/or systemic means, the test unit consisted of a small open container with a 12-15-day-old radish plant inside. This was pre-infested by placing on a leaf of the test plant 30-40 aphids on a piece of leaf excised from a culture plant (cut-leaf method). The aphids moved onto the test plant as the leaf piece desiccated. After pre-infestation, the soil of the test unit was covered with a layer of sand.
Test compounds were formulated and sprayed at 250 and/or 50 ppm. After spraying of the formulated test compound, each test unit was allowed to dry for 1 hour and then a black, screened cap was placed on top. The test units were held for 6 days in a growth chamber at 19-21° C. and 50-70% relative humidity. Each test unit was then visually assessed for insect mortality.

Data set [2] relates to cotton melon aphid (Aphis gossypii (Glover)). Kind of data set: Test B: control of cotton melon aphid on cotton plant, spray, contact and/or systemic. The data set is classed as in vivo. Particulars: 144 h. How it is done:
as §1
For evaluating control of cotton melon aphid (Aphis gossypii (Glover)) through contact and/or systemic means, the test unit consisted of a small open container with a 6-7-day-old cotton plant inside. This was pre-infested with 30-40 insects on a piece of leaf according to the cut-leaf method, and the soil of the test unit was covered with a layer of sand.
Test compounds were formulated and sprayed at 250 and/or 50 ppm. After spraying, the test units were maintained in a growth chamber for 6 days at 19° C. and 70% relative humidity. Each test unit was then visually assessed for insect mortality.

Data set [3] deals with sweetpotato whitefly (Bemisia tabaci (Gennadius)). Nature of the data set: Test D: control of sweetpotato whitefly on cotton plant, spray, contact and/or systemic. The data set is classed as in vivo. The settings on record: 312 h, sprayed at 250 ppm, cotton plant infested with eggs, assessed after 13 days. The procedure:
as §1
For evaluating control of the sweetpotato whitefly (Bemisia tabaci (Gennadius)) through contact and/or systemic means, the test unit consisted of a small open container with a 12-14-day-old cotton plant inside. Prior to the spray application, both cotyledons were removed from the plant, leaving one true leaf for the assay. Adult whiteflies were allowed to lay eggs on the plant and then were removed from the test unit. Cotton plants infested with at least 15 eggs were submitted to the test for spraying.
Test compounds were formulated and sprayed at 250 and/or 50 ppm. After spraying, the test units were allowed to dry for 1 hour. […] Each test unit was then visually assessed for insect mortality.

Data set [4] has as its system Western Flower Thrips (Frankliniella occidentalis (Pergande)). Kind of data set: Test C: control of Western Flower Thrips on Soleil bean plant, spray, contact and/or systemic. The data set is classed as in vivo. Particulars: sprayed at 250 ppm, adult thrips, held 6 days. How it is done:
as §1
For evaluating control of the Western Flower Thrips (Frankliniella occidentalis (Pergande)) through contact and/or systemic means, the test unit consisted of a small open container with a 5-7-day-old Soleil bean plant inside.
Test compounds were formulated and sprayed at 250 ppm. After spraying, the test units were allowed to dry for 1 hour, and then 22-27 adult thrips were added to each unit. A black, screened cap was placed on top, and the test units were held for 6 days at 25° C. and 45-55% relative humidity.

Where [5] appears, read: sprayed at 250 ppm, cotton plant, assessed after 6 days, read-out: mortality.

In general, mortality refers to the percentage killed. What is called melting point is the temperature, or range, at which the solid turns liquid.

On to `N#CCC(=O)N1CCc2nn(-c3cccnc3)cc2C1` [Compound 54, 2,4,6,7-tetrahydro-β-oxo-2-(3-pyridinyl)-5H-pyrazolo[4,3-c]pyridine-5-propanenitrile], for which the mortality at 250 ppm was no less than 80% in data set [1], no less than 80% in data set [2] (setting [5]) and no less than 50% in data set [3].

As to `c1cncc(N2CCc3nn(-c4cccnc4)cc3C2)c1` [Compound 52], the mortality at 250 ppm is no less than 80% in data set [1] and no less than 50% in data set [3].

Consider `COC1CC(NC(=O)N2CCc3nn(-c4cccnc4)cc3C2)C1` (stereo not shown) [Compound 47, 2,4,6,7-tetrahydro-N-(3-methoxycyclobutyl)-2-(3-pyridinyl)-5H-pyrazolo[4,3-c]pyridine-5-carboxamide], for which, in data set [2] (setting [5]), the mortality at 250 ppm is no less than 80%.

The compound `CCNC(=O)N1CCc2nn(-c3cccnc3)cc2C1` [Compound 31] showed a melting point of 151.1 to 170.5 °C.

Consider `O=C(CC[S+]([O-])CC(F)(F)F)N1CCc2nn(-c3cccnc3)cc2C1` (stereo not shown) [Compound 23, 1-[2,4,6,7-tetrahydro-2-(3-pyridinyl)-5H-pyrazolo[4,3-c]pyridin-5-yl]-3-[(2,2,2-trifluoroethyl)sulfinyl]-1-propanone], for which the “control efficacy (30% or less plant damage and/or 100% mortality)” value in data set [4] is listed as “very good to excellent levels of control efficacy”. For the same compound, the mortality at 250 ppm in data set [1] and in data set [2] (setting [5]) was no less than 80% each time.

With `CN(C)C(=O)OCC(=O)N1CCc2nn(-c3cccnc3)cc2C1` [Compound 51, 2-oxo-2-[2,4,6,7-tetrahydro-2-(3-pyridinyl)-5H-pyrazolo[4,3-c]pyridin-5-yl]ethyl N,N-dimethylcarbamate], the mortality at 250 ppm in data set [2] was no less than 80%.

As for `c1cncc(-n2cc3c(n2)CCN(c2cnccn2)C3)c1` [Compound 48, 4,5,6,7-tetrahydro-2-(3-pyridinyl)-5-(2-pyrazinyl)-2H-pyrazolo[4,3-c]pyridine], the mortality at 250 ppm in data set [2] (setting [5]) is no less than 80%.

As to `c1ccc(N2CCc3nn(-c4cccnc4)cc3C2)nc1` [Compound 49], the melting point fell in the range of 117 to 125.1 °C.

Consider `O=C(CCSCC(F)(F)F)N1CCc2nn(-c3cccnc3)cc2C1` [Compound 22, 1-[2,4,6,7-tetrahydro-2-(3-pyridinyl)-5H-pyrazolo[4,3-c]pyridin-5-yl]-3-[(2,2,2-trifluoroethyl)thio]-1-propanone], for which the “control efficacy (30% or less plant damage and/or 100% mortality)” value in data set [4] is listed as “very good to excellent levels of control efficacy”. Besides, the mortality at 250 ppm in data set [1] and in data set [2] (setting [5]) was no less than 80% in each case.

Consider `FC(F)(F)c1ccc(N2CCc3nn(-c4cccnc4)cc3C2)nc1` [Compound 19], for which the “control efficacy (30% or less plant damage and/or 100% mortality)” value in data set [4] is on record as “very good to excellent levels of control efficacy”.

As to `COC(CN(C)C(=O)N1CCc2nn(-c3cccnc3)cc2C1)OC` [Compound 14, 2,4,6,7-tetrahydro-N-methyl-2-(3-pyridinyl)-N-(2,2-dimethoxyethyl)-5H-pyrazolo[4,3-c]pyridine-5-carboxamide], in data set [1], the mortality at 50 ppm was no less than 80% and the mortality at 250 ppm was no less than 80%.

For the compound `COC(=O)NNC(=O)N1CCc2nn(-c3cccnc3)cc2C1` [Compound 10, 2,4,6,7-tetrahydro-2-(3-pyridinyl)-5H-pyrazolo[4,3-c]pyridine-5-carboxylic acid, 2-(methoxycarbonyl)hydrazide], the “control efficacy (30% or less plant damage and/or 100% mortality)” value in data set [4] is listed as “very good to excellent levels of control efficacy”. In data set [1], the mortality at 50 ppm was no less than 80% and the mortality at 250 ppm was no less than 80%.

The compound `CNC(=O)N1CCc2nn(-c3cccnc3)cc2C1` [Compound 29] displayed a melting point of 212 to 224.2 °C.

Take “2,4,6,7-tetrahydro-2-(3-pyridinyl)-N-(2,2,2-trifluoromethyl)-5H-pyrazolo[4,3-c]pyridine-5-carboxamide [Compound 15]”: in data set [4], the “control efficacy (30% or less plant damage and/or 100% mortality)” value is given as “very good to excellent levels of control efficacy”.

As to `FC(F)(F)c1cc(N2CCc3nn(-c4cccnc4)cc3C2)ccn1` [Compound 20, 4,5,6,7-tetrahydro-2-(3-pyridinyl)-5-[2-(trifluoromethyl)-4-pyridinyl]-2H-pyrazolo[4,3-c]pyridine], in data set [4], the “control efficacy (30% or less plant damage and/or 100% mortality)” value is recorded as “very good to excellent levels of control efficacy”. Also, in data set [1], the mortality at 50 ppm was no less than 80% and the mortality at 250 ppm was no less than 80%.

`O=C(NCC(F)(F)F)N1CCc2nn(-c3cccnc3)cc2C1` [Compound 28] had a melting point of 118.3 to 155.3 °C.
